Assay results from patent US20250332183A1, “COMPOSITIONS AND METHODS FOR THE STIMULATION OF INTERMEDIATE MACROPHAGES AND TREATMENTS THEREWITH” (priority 2024, published 2025).
“Also recorded” adds a separate entry of the source.

Tests used:
[1] = system: preterm lamb model of BPD; assay: Survival and growth in mechanically ventilated preterm lamb BPD model; type: in vivo
Excerpt: Study timeline. FIGS. 1A and 1B show the timeline for the two-endpoint study using two groups of PT lambs. The first endpoint used PT lambs managed by IMV for 7d, followed by extubation to noninvasive respiratory support (NRS) for up to 3d of life (DOL7-10). At that time, terminal tissues were collected. The second endpoint used the same management protocol, followed by weaning the lambs from respiratory support and having them live in the lamb intensive care unit as former PT (FPT) lambs for 2 months corrected postnatal age (3 months chronological age, DOL 90). The rationale for the 2-month corrected postnatal age for FPT lambs is when sheep are weaned from milk, equivalent to about 12-18 months for humans. Methods for the FPT lamb model have been reported.^14,17
PT lamb model and methods for all outcome measures. Surgical preparation and management of lamb groups. Delivery and clinical management methods for PT lambs (6-8) and FPT lambs (3, 4). Briefly, time-pregnant ewes that had single or twin fetuses at ˜128d (˜85%) gestation (term ˜150d gestation) were used (main FIGS. 1A and 1B). The fetuses were exposed to antenatal steroids (dexamethasone) at ˜48 h and ˜24 h before Cesarean-section (exit-procedure) delivery. […]

[2] = system: preterm lamb model of BPD; assay: Respiratory gas exchange / oxygenation and ventilation indices in ventilated preterm lambs; type: in vivo
Method: For dose-optimization, preterm (PT) lambs were delivered at ˜128d (d; saccular stage of lung development; ˜85% gestation) after maternal antenatal steroids exposure. […] After delivery and surfactant administration, PT lambs were maintained on invasive mechanical ventilation (IMV) for 7d followed by 3d noninvasive respiratory support. For the early-stage study, outcomes were determined for PT lambs over DOL1-10. For the late-stage study, outcomes were determined for former preterm (FPT) lambs (vehicle, AVR-48 treated) that were weaned from respiratory support after 10d and were maintained in the lamb intensive care unit for a further 80d. Outcomes included functional, structural, molecular, and neurobehavioral assessments. Term reference lambs that were never ventilated were used as developmental references for the FPT lambs.
Arterial blood gases were obtained starting at 15 min of postnatal life and taken every 15 min for the first 90 min of postnatal life. FiO2 was decreased to attain a target oxygenation of O2 saturation 88-94% by pulse oximetry (Model SurgiVet V9200IBP/Temp, Smith Medical ASD, Inc., St. Paul, MN). PIP was adjusted to attain a target PaCO2 between 45 and 60 mmHg. The resultant pH range was between 7.25-7.35.
Study design. A randomized, blinded, placebo-controlled study design was used for both endpoints. For each endpoint study, one group of PT lambs was treated with vehicle (saline, intravenously, iv, over about 10 min) for 7d and thus served as control. Another group of PT lambs was treated iv with AVR-48 for 7d. Either treatment was started at 6 h of postnatal life to allow the PT lambs to stabilize after Cesarean-section delivery and resuscitation physiologically and to permit initiation of ventilator-induced lung injury. The inventors relied on visual identification of biological sex at the time of delivery in the absence of an ultrasound unit in the lamb intensive care unit. The inventors tracked sex as a biological variable, but the study could not assess differences in outcomes based on sex because of small sample sizes.

[3] = Clinical biochemistry and physiological parameters of treated lambs; type: in vivo, lamb
Method: Arterial blood and free-fall urine samples were collected every 24 h and analyzed for indicators of liver and kidney function (Associated Regional and University Pathologists (ARUP) Laboratories, Salt Lake City).
Clinical biochemistry. Plasma and urine samples were analyzed by Associated Regional and University Pathologists (ARUP) at the University of Utah. Plasma renal function parameters are urea nitrogen and creatinine. Plasma hepatic function parameters are alkaline phosphatase, aspartate aminotransferase, alanine aminotransferase, total protein, albumin, bilirubin total, and direct bilirubin.
Physiological parameters for lambs in the early and late-stage studies. Physiology results were obtained including cardiovascular physiology, temperature, respiratory rates, indices for oxygenation, ventilation indices, plasma pH, bicarbonate, base excess, plasma electrolytes, plasma glucose, hematocrit (Hct), total serum protein (Tsp), lactate, enteral feeding, milk residual, and hematology for early and late-stage studies.

[4] = system: cord blood mononuclear cells (CBMCs); assay: LPS tolerance / pretreatment in CBMCs; type: cell-based, human
Method: Cells were dosed with AVR-48 [100 μM], LPS [50 ng/mL], and in combination show (FIG. 16A). […] N=3, One-way ANOVA was used for analysis. […] N=3, Two-way ANOVA.
N=3 *p<0.05, **p<0.01, ***p<0.001. One-way ANOVA and t tests.

[5] = system: cord blood mononuclear cells (CBMCs); assay: Macrophage lineage in CBMCs; type: cell-based, human; conditions: 100 μM and LPS 50 ng/mL, 72 h (3d), HLA-DRlow/CD163high
Excerpt: N=3, *P<0.05, Two-way ANOVA was used for statistical analysis.

mice = assay: AVR-48 pretreatment of mice followed by LPS, immune cell profile; type: in vivo, mouse; conditions: mice pretreated with AVR-48, in the presence of LPS
Excerpt: AVR-48 stimulated innate and adaptive immune response via (FIG. 25E) TNF-α increase and (FIG. 25F) CD3+, (FIG. 25G) CD4+, and (FIG. 25H) CD8+ T-cells, a necessary step in adaptive response and immune resolution. *p<0.05, **p<0.01, ***p<0.001; N=4, One-way ANOVA was used for analysis.

[6] = early-stage study DOL 1-7, vs vehicle
[7] = early-stage study, PT lambs, 3.0 mg/kg, vs vehicle

With `CC(=O)NC1C(Oc2ccc([N+](=O)[O-])cc2)OC(CO)C(O)C1O` (centres unmarked) [AVR-48] the survival ([1]; early-stage study, PT lambs) was ~100%, the survival ([1]; late-stage study d10-d90, FPT lambs, 3.0 mg/kg iv every 12 h DOL1-7) was 80% and the body weight ([1]; late-stage study, FPT AVR-48 lambs vs FPT vehicle lambs) was “significantly increased”. The BPD-like symptoms ([2]; 10d period, dose escalation 0.1-9.0 mg/kg/dose) was “diminished in a dose-related manner”, the “respiratory severity score (RSS)” value ([2]; early-stage pilot, PT lambs, 1.0 mg/kg iv every 12 h) was “improved moderately” and the “FiO2 and PaO2” value [2, 6] was “No statistical difference”. The “PIP and PaCO2” value [2, 6] was “No statistical difference”, the “respiratory severity score (RSS)” value ([2]; early-stage study, PT lambs, 3.0 mg/kg iv every 12 h, vs vehicle, 3 mg/kg) was “Significant improvements; also recorded: significantly improved” and the “Alveolar-arterial (A-a) gradient” value [2, 7] was “significantly improved”. The “SpO2/FiO2 (SF) ratio” value [2, 7] was “significantly improved”, the oxygenation index [2, 7] was “significantly improved” and the “clinical parameters (plasma renal and hepatic function)” value ([3]; AVR-48 treated lambs) was “within the normal range”. The “physiological outcomes (cardiovascular, temperature, respiratory rates, plasma chemistry, feeding, hematology)” value ([3]; early and late-stage studies) was “no adverse effect”, the Hematology [3, 6] was “No statistical difference” and the “plasma glucose, Hct, Tsp, and lactate” value [3, 6] was “No statistical difference”. For the same molecule, the “plasma pH, bicarbonate, and BE” value [3, 6] was “No statistical difference”, the “temperature or respiratory rate” value [3, 6] was “No statistical difference” and the systolic blood pressure ([3]; early-stage study, DOL 6, vs vehicle, not observed on any other days) was “higher systolic blood pressure”. For the same molecule, the “volume of tolerable enteral feeding and residual in the stomach” value ([3]; in vivo) was “No statistical difference”, the IL-1β profile ([4]; CBMC pre-treated with compound 100 μM for 48 h followed by LPS 50 ng/mL) was “inhibited IL-1β profile” and the “TNF-α in LPS-tolerant CBMCs” value ([4]; low dose LPS 48 h then second (high dose) LPS, with addition of compound) was “increased production of TNF-α”. For the same molecule, the TNF-α level ([4]; pretreatment 48 h followed by LPS 24 h, vs control) was “significant higher level”, the macrophage lineage [5] was “preference for intermediate macrophage lineage” and the “CD3+ T-cells” value (mice) was “stimulated”. For the same molecule, the “CD4+ T-cells” value (mice) was “stimulated”, the “CD8+ T-cells” value (mice) was “stimulated” and the M1 macrophages (mice) was “increased”. The “Mint (intermediate) macrophages” value (mice) was “increased” and the TNF-α (mice) was “increase”.
